Measured values: patent publication US20260293900A1 (priority 2023, published 2026)

Columns and labels:
[1] = test system: Phytophthora infestans; type: in vivo, Phytophthora infestans (on tomato leaf disks); conditions: 200 ppm; tomato leaf disks, preventative, inoculated 1 day after application; assessed 5-7 days after application
[2] = test system: Plasmopara viticola; type: in vivo, Plasmopara viticola (on grape vine leaf disks); conditions: 200 ppm; grape vine leaf disks, preventative, inoculated 1 day after application; assessed 6-8 days after application
[3] = test system: Pythium ultimum; assay: Pythium ultimum/Liquid Culture (Seedling Damping Off); type: cell-based; conditions: Globisporangium ultimum, read-out: control of Pythium ultimum compared to untreated control (inhibition of growth)

Compound | control of Phytophthora infestans compared to untreated control (percent disease control) [1] | control of Plasmopara viticola compared to untreated control (percent disease control) [2] | inhibition at 20 ppm [3] [%]
COCN(C(=O)c1ccn2ncc(-c3ccc(NC(=O)OC)nc3)c2c1)c1ccc(F)c(OC)c1 [Compound 1, methyl N-[5-[5-[(4-fluoro-3-methoxy-phenyl)-(methoxymethyl)carbamoyl]pyrazolo[1,5-a]pyridin-3-yl]-2-pyridyl]carbamate] | at least 80% | at least 80% | ≥ 80
COC(=O)Nc1ccc(-c2cnn3ccc(C(=O)N(CC#N)c4ccc(Cl)c(OC)c4)cc23)cn1 [Compound 2, methyl N-[5-[5-[(4-chloro-3-methoxy-phenyl)-(cyanomethyl)carbamoyl]pyrazolo[1,5-a]pyridin-3-yl]-2-pyridyl]carbamate] | at least 80% |  | ≥ 80
COC(=O)Nc1ccc(-c2cnn3ccc(C(=O)N(CC#N)c4ccc(F)c(OC)c4)cc23)cn1 [Compound 3, methyl N-[5-[5-[cyanomethyl-(4-fluoro-3-methoxy-phenyl)carbamoyl]pyrazolo[1,5-a]pyridin-3-yl]-2-pyridyl]carbamate] | at least 80% | at least 80% | 
COC(=O)Nc1ccc(-c2cnn3ccc(C(=O)N(C)c4ccc(F)c(OC)c4)cc23)cn1 [Compound 4, methyl N-[5-[5-[(4-fluoro-3-methoxy-phenyl)-methyl-carbamoyl]pyrazolo[1,5-a]pyridin-3-yl]-2-pyridyl]carbamate] | at least 80% | at least 80% | ≥ 80
COC(=O)Nc1ccc(-c2cnn3ccc(C(=O)N(C)c4ccc(Cl)cc4)cc23)cc1 [Compound 5, methyl N-[4-[5-[(4-chlorophenyl)-methyl-carbamoyl]pyrazolo[1,5-a]pyridin-3-yl]phenyl]carbamate] |  |  | ≥ 80
CC(=O)Nc1ccc(-c2cnn3ccc(C(=O)N(C)c4ccc(Cl)cc4)cc23)cc1 [Compound 6, 3-(4-acetamidophenyl)-N-(4-chlorophenyl)-N-methyl-pyrazolo[1,5-a]pyridine-5-carboxamide] |  |  | ≥ 80
